Experiments:
[1] = in-vitro release of propranolol from multilaminate transdermal device (Valia-Chien diffusion cell, without skin); type: physicochemical; conditions: for RELEASE RATE OF PROPRANOLOL: Example 2, SPE-m-TAD
Experimental: (§1) Both in-vitro release and skin permeation studies can then be conducted by mounting the device (with or without skin) onto a Valia-Chien diffusion cell at 37° C. In-vivo studies can be conducted by placing the patch on the pinna (ear) of a rabbit and taking blood samples which can be analyzed for propranolol (results on the attached sheets).
The release rate of drug from the SPE-m-TAD can be changed by the alteration of the drug load in the outer drug laminate.

[2] = in-vitro skin permeation of propranolol from TMAD (Valia-Chien diffusion cell, with skin); type: in vitro ADME; conditions: delivered from TMAD
Experimental: as §1
In this case, the enhancer laminate would be fabricated by combining an aliphatic alcohol with adhesive in a 1.25:10 ratio. The enhancer laminate would then be solvent cast and laminated as in Example 1. The devices can then be evaluated in-vitro and in-vivo. (results shown on the attached sheets).

[3] = in-vivo plasma propranolol after topical application of TMAD on inner pinna of rabbit; conditions: FIG. A-7, rabbits
Experimental: as §1

For `CC(C)NCC(O)COc1cccc2ccccc12` (racemic) [propranolol, Propranolol], the “RELEASE RATE OF PROPRANOLOL” value ([1]; propranolol drug load in outer drug laminate 3%) was 48.1 ug cm^-2 hr^-1, the “RELEASE RATE OF PROPRANOLOL” value ([1]; propranolol drug load in outer drug laminate 5%) was 49.9 ug cm^-2 hr^-1 and the “RELEASE RATE OF PROPRANOLOL” value ([1]; propranolol drug load in outer drug laminate 7%) was 52.2 ug cm^-2 hr^-1. The “RELEASE RATE OF PROPRANOLOL” value ([1]; propranolol drug load in outer drug laminate 20%) was 59.1 ug cm^-2 hr^-1, the drug release kinetics ([1]; FIG. A-2, only extremely small particle size (1.5 μm) propranolol crystals in outer laminate layer) was “Device-controlled zero-order drug release kinetics was achieved” and the “zero-order release profile of propranolol from TMAD, effect of skin permeation enhancers” value ([1]; FIG. A-3, various skin permeation enhancers in contact adhesive polymer coating) was “did not affect the zero-order release profile”. For the same molecule, the “overall release of propranolol from the device” value ([1]; SPE-m-TAD, decreasing drug load in outer drug laminate, particle size 1.5 microns) was “can be reduced, while still maintaining zero-order release kinetics”, the “enhancement in skin permeation rate of propranolol by alkyl alcohols” value ([2]; FIG. A-4, dependence on alkyl chain length n of alcohols) was “The rate of skin permeation increases as increasing the alkyl chain length of the alcohols and reaches the maximum level at n=12~14” and the “enhancement in skin permeation rate of propranolol by alkanoic acids” value ([2]; FIG. A-5, dependence on alkyl chain length n of acids) was “The rate of skin permeation shows a sinoidal dependence on the alkyl chain length of the acids and with the maximum rates at n=3 and 16”. The “enhancement in skin permeation rate of propranolol by esters of Lauric Acid (n=12)” value ([2]; FIG. A-6, dependence on alkyl chain length n of esters) was “The rate of skin permeation increases first and then levels off as increasging the alkyl chain length of the esters and reaches the maximum level at n=2”, the “plasma concentration profiles of propranolol” value ([3]; 24-hr topical application of TMAD on inner pinna ear) was “long-acting plasma concentration profiles” and the “systemic bioavailability of propranolol, as shown by plasma levels” value ([3]; 24-hr topical application of TMAD with various skin permeation enhancers) was “improved the systemic bioavailability, as shown by elevated constant plasma levels”.
